In one series the test system is GABA system. To be noted: via a GABA system; Japanese Patent Publications; Biochemical Pharmacol., 32, 2751-2755, 1983; cited from earlier work.
For a further series, the system named is Wistar rats. The series is described as follows: Antipsychotic action test: phencyclidine-induced locomotor activity and stereotypy (method of Sturgen et al.). The class given is in vivo. Conditions: for Effect on locomotor activity and stereotypy score compared with NMD-Ser and NMD-Ala: phencyclidine-dosed rats, dose not stated; for Locomotor activity score / Stereotypy score: 10 min before phencyclidine 10 mg/kg i.p., 30 minutes, grades 0-5; for Dose dependence of locomotor activity and stereotypy score: 30 minutes after pretreatment and dosage of phencyclidine; for Control of locomotor activity and stereotypy score: group dosed 100 mg/kg; for Statistical significance of lowering of locomotor activity and stereotypy score: group dosed more than 50 mg/kg, P<0.01. As for the experimental part: (§1) Method: the action of antipsychotic was estimated by a method of Sturgen et al. (Eur. J. Pharmacol 76, 37-53, 1981). Namely, medicines suspended in 0.1% Tween 80 were dosed in the abdomen of Wistar rats (Weight: 200-250 g, 6 rats/group). After ten minutes, phencyclidine dissolved in physiological saline (10 mg/kg) was dosed intraperitoneally. After ten minutes, locomotor activity and stereotypy score were estimated at intervals of 20 minutes by 6 grades.
1. Sometimes, movement within localized area of cage.
2. Movement over a small area of cage, intermittent activity emitted at a low-moderate rate.
3. Movement over a small area of cage, activity emitted continuously and at a moderate-rapid rate.
4. Movement over a large area of cage, activety is intermittent and emitted at a low-moderate rate.
5. Movement over a large area of cage, activety is emitted continuously and at a moderate-rapid rate.
1. Locomotor activity, sniffing and grooming more frequent than observed for control.
2. Higher frequency of sniffing, rearing or turning than in 1.
3. Moderate rate and intermittent sniffing, rearing, turning or backpedaling.
4. Rapid rate and continuous turning, backpedaling, sniffing.
5. Dyokinetic extension and flexion of limbs, head and neck.

The next series deals with glycine binding site. The experiment in a line: Intracranial administration with 7-chlorokynurenic acid, phencyclidine-induced locomotor activity and stereotypy. The class given is in vivo, rats. Conditions: 200 mg/kg with 7-chlorokynurenic acid (allosteric antagonist of glycine binding site) dosed in the brain. The method, then:
as §1
Rats were anesthetized with pentobarbital (40 mg/kg, intruperitoneally) and mounted on a stereotaxic frame. For the intracranical administration of 7-chlorokynurenicocid, the guide cannulae were fixed to the skull. Beginning 5-7 days after surgery, bilateral intracranial injections were performed in the non-anesthetized rats with cannulae attached by poly ethylene tubes to two 10 μl Hamilton syringes. The injection site was A.P. -0.8 (anterior to bregma), V. +2.0, L.±1.5 according to the atlas of Paxinos and Watson (1982). The medicine 5 μl was injected in four minutes a minute after inserting the needle. After the injection the injection needle was kept in the brain for five minutes and removed. After ten minutes from the beginning of the injection, phencyclidine was dosed intraperitoneally.

The conditions of series [1]: background statement; cited from earlier work.
The conditions of series [2]: dosed in a living body; background statement; cited from earlier work.

For the compound `CCCCCNCC(N)=O` [2-n-pentyl amino aceto amide], the “Anticonvulsant functions for convulsion induced with bicuculline” value with GABA system was “anticonvulsant functions”.

Consider `CCCCC(=O)NCC(=O)O` [2-pentanoyl amino acetic acid], for which the “Anticonvulsant functions for convulsion induced with bicuculline” value in the series with GABA system is “anticonvulsant functions”.

As for `CCCCCCCC/C=C\CCCCCCCC(=O)N[C@H](CO)C(=O)O` [N-oleoyl-D-serine], the “Effect on locomotor activity and stereotypy score compared with NMD-Ser and NMD-Ala” value in the series with Wistar rats was “the same effect is observed”.

Turning to `CCCCC(=O)N[C@H](CO)C(=O)O` [N-pentanoyl-D-serine], the “Effect on locomotor activity and stereotypy score compared with NMD-Ser and NMD-Ala” value in the series on Wistar rats is “the same effect is observed”.

For `CCCCCCCCCCCCCC(=O)N[C@H](C)C(=O)O` [NMD-Ala, N-myristoyl-D-alanine], the Locomotor activity score is recorded as 2.8 ± 0.2 in the series on Wistar rats (1 mg/kg i.p.); 2.4 ± 0.4 in the series with Wistar rats (10 mg/kg i.p.); 2.2 ± 0.4 with Wistar rats (50 mg/kg i.p., P < 0.01); 0.7 ± 0.3 in the series on Wistar rats (100 mg/kg i.p., P < 0.01); 1.5 ± 0.3 with Wistar rats (200 mg/kg i.p., P < 0.01). Also, the Stereotypy score in the series with Wistar rats (1 mg/kg i.p.) was found to be 3.0 ± 0.4; in the series with Wistar rats (10 mg/kg i.p.), 2.4 ± 0.2; in the series on Wistar rats (50 mg/kg i.p., P < 0.01) it was 2.0 ± 0.3; in the series with Wistar rats (100 mg/kg i.p., P < 0.01) it was 0.8 ± 0.3; in the series on Wistar rats (200 mg/kg i.p., P < 0.01), 1.3 ± 0.4. Also, in the series on Wistar rats, the “Dose dependence of locomotor activity and stereotypy score” value is “the scores lessen with the decrease of the dose”. The “Control of locomotor activity and stereotypy score” value in the series with Wistar rats was “nearly controlled”. The “Statistical significance of lowering of locomotor activity and stereotypy score” value in the series on Wistar rats is reported as “statistical significant difference (P<0.01) is found”.

In the case of `CCCCCCCCCCCCCC(=O)N[C@H](CO)C(=O)O` [NMD-Ser, N-myristoyl-D-serine], the Locomotor activity score came to 3.7 ± 0.2 in the series with Wistar rats (1 mg/kg i.p.); 3.3 ± 0.2 in the series on Wistar rats (10 mg/kg i.p.); 2.0 ± 0.3 in the series on Wistar rats (50 mg/kg i.p., P < 0.01); 1.5 ± 0.5 with Wistar rats (100 mg/kg i.p., P < 0.01); 1.5 ± 0.3 in the series with Wistar rats (200 mg/kg i.p., P < 0.01). Moreover, the Stereotypy score is listed as 3.2 ± 0.3 in the series with Wistar rats (1 mg/kg i.p.); 3.2 ± 0.3 in the series with Wistar rats (10 mg/kg i.p.); 1.7 ± 0.2 in the series with Wistar rats (50 mg/kg i.p., P < 0.01); 1.2 ± 0.3 in the series with Wistar rats (100 mg/kg i.p., P < 0.01); 1.5 ± 0.2 with Wistar rats (200 mg/kg i.p., P < 0.01). Also, the “Dose dependence of locomotor activity and stereotypy score” value with Wistar rats is reported as “the scores lessen with the decrease of the dose”. Further, the “Control of locomotor activity and stereotypy score” value with Wistar rats is “nearly controlled”. Besides, the “Statistical significance of lowering of locomotor activity and stereotypy score” value in the series with Wistar rats is given as “statistical significant difference (P<0.01) is found”. In the series on glycine binding site, the “Locomotor activity and stereotypy score observed at a dose of N-myristoyl-D-serine alone, when dosed with 7-chlorokynurenic acid” value was “are not observed”.

Take `CN(C)CCCN1c2ccccc2Sc2ccc(Cl)cc21` [chlorpromazine]: the Side effect entry in series [1] is “unsatisfactorily side effect, for example, myogelosis, mouth dry, sleepiness and constipation”.

`NCC(=O)O` [glycine]: the “Passage through blood brain barrier” value in series [2] was “can not pass through blood brain barrier”.

The values are drawn from patent US5112863A, “Antipsychotic drug” (Nippon Oil & Fats Co., Ltd., priority 1989, dated 1992).
